Reference: US20220233472A1, “VETERINARY BROMHEXINE HYDROCHLORIDE SOLUBLE POWDER, PREPARATION METHOD AND USE THEREOF” (Qingdao Agricultural University, priority 2021, published 2022)
Structures can show the parent of a compound that is named as a salt.

Test: Pharmacokinetic tests of bromhexine hydrochloride soluble powder in chickens
Format: in vivo
Details: oral, soluble powder at 50, 150 and 250 mg/kg·bw
Procedure: Pharmacokinetic tests of bromhexine hydrochloride soluble powder in chickens were carried out based on three administration dosages of 50 mg/kg·bw, 150 mg/kg·bw and 250 mg/kg·bw.

For CN(Cc1cc(Br)cc(Br)c1N)C1CCCCC1 [bromhexine, Bromhexine hydrochloride], the pharmacokinetic characteristic was “linear pharmacokinetic characteristic”.
